{"source": "patent US12624013B2", "about": "“Purification of 2,5-furandicarboxylic acid, dimethyl ester and other esterified products” (Archer Daniels Midland Company, priority 2020, dated 2026)", "format_in_all_cases": "physicochemical", "key": {"[1]": {"assay": "Storage stability of purified FDME crystals in ambient air", "details": "3.5 years", "description": "A 200 gram sample of a dried, impure mixture (crude composition comprising FDME) obtained from the esterification of FDCA with methanol to FDME was added to a 500 ml Erlenmeyer flask equipped with a PTFE magnetic stir bar. This solid composition was determined by UPLC-PDA to be 80 wt-% FDME, 18 wt-% FDMME, and 2 wt-% FDCA. Approximately 100 ml of methylene chloride was added to the flask, followed by 100 ml of 5 wt-% sodium bicarbonate. The biphasic solution was vigorously stirred for 30 minutes and transferred to a 1 liter separatory flask, which was used to remove the bottom organic phase. The top aqueous phase was extracted 2 times with additional extraction quantities, 30 ml each, of methylene chloride. These additional extraction quantities were combined with the organic phase, and the combined liquids were transferred to a 500 ml Wheaton bottle and placed in the freezer overnight. […] The retained crystals were dried with a stream of argon for 1 hour, determined to have a weight of 58.7 grams, and then stored in a 250 ml Wheaton bottle. A purity analysis of the crystals of the purified composition was carried out by quantitative ^1H NMR, indicating these to be 99.98 wt-% pure. The crystals were stored in ambient air and in a bottle on a tabletop."}, "[2]": {"assay": "CIE 1976 (L*a*b*) colorimetry of stored purified FDME composition", "details": "after storage over 3 years in ambient air", "description": "In this regard, the color of the purified FDME composition was evaluated quantitatively by determining its chromaticity coordinates in the L*a*b* color space. This refers to a particular color space of different color systems of the CIE, or Commission Internationale de l'Echairage (International Commission of Illumination), which color systems were developed as a way to standardize color, or express color values numerically, and thereby remove the subjectivity of the human observer. The CIE 1976 (L*a*b*) color space is based on the opponent-colors theory of color vision, according to which two colors cannot be both green and red at the same time, nor blue and yellow at the same time. Therefore, single values can be used to describe the red/green and the yellow/blue attributes of a sample. In this regard, when a color is expressed using the L a*b* color space, the respective coordinates of L*, a*, and b* denote lightness, the red/green value, and the yellow/blue value, with these coordinates ranging from −100 to +100. For purposes of characterizing compositions described herein with respect to yellow color, the value of b* is particularly relevant. The assessment of the L*, a*, and b* coordinates of the purified FDME composition was performed using a commercially available colorimeter from Konica Minolta, model CM-5.\n(§1) To prepare a first sample, Sample #1, of the purified FDME composition for color analysis, a 0.597 gram portion of the composition was dissolved in 9.414 grams of a solvent mixture of 1:1 (v/v) acetonitrile/isopropanol, such that Sample #1 contained 5.96 wt-% of the dissolved composition. A second sample, Sample #2 was prepared by dissolving a 0.592 gram portion of the composition in 9.406 grams of this solvent, such that Sample #2 contained 5.92 wt-% of the dissolved composition. For each sample having a target concentration of 6 wt-% dissolved solids, two CIE 1976 (L*a*b*) colorimetry measurements and two APHA measurements were performed."}, "[3]": {"assay": "APHA color (ASTM D1209) of stored purified FDME composition", "details": "Average of Samples #1 and #2, two measurements each; after storage over 3 years in ambient air", "description": "Another color measurement, which is referred to as APHA color, was also determined for the purified FDME composition according to ASTM D1209. APHA color is also known as the Hazen scale, as well as the platinum cobalt (Pt/Co) scale. APHA is a color standard named for the American Public Health Association that was originally intended to describe the color of wastewater, but its usage has expanded to include other applications. APHA color is a color scale sometimes referred to as a “yellowness index” that is used to assess the quality of liquids that are clear to yellowish in color.\nas §1"}, "[4]": {"assay": "Room temperature solubility of FDME in methanol", "details": "content of mother liquor", "description": "The combination of filtration with diatomaceous earth and crystallization was investigated for its effectiveness in purifying a crude composition of FDME, having weight percentages of individual compounds as described in Example 1. A 105 gram sample of this crude composition was ground and dissolved in 700 ml of methanol to provide a 15 wt-% stock solution of the crude composition, which was maintained at 55° C. in a water bath with shaking. A 300 gram portion of this stock solution was removed and diluted to 2 wt-% dissolved solids, or approximately the room temperature solubility, and filtered on a 2″ diatomaceous earth (DE) filter using a Buchner funnel. Following this DE filtration, the solution was concentrated back to 20 wt-% in a crystallizer using a vacuum pump to evaporate the methanol solvent. […] Stirring at 100 rpm was maintained during the cooling, and the particle size distribution was determined in real time. […] It was determined that a 2-hour residence time at 35° C. and subsequent cooling to 30° C. leads to significant nucleation. […]\nThe solids from crystallization were emptied onto a Buchner funnel filter, and the crystals were sprayed with room temperature methanol. […] Following this single stage of crystallization, 67% of the FDME from the crude composition was recovered in the purified composition, which was determined to be 99.05 wt-% FDME and 0.86 wt-% FDMME. […]"}, "[5]": {"assay": "Solubility of FDME in various solvents (sonicated 15 minutes at 35° C.)", "details": "for Solubility remarks / FDME solubility limits: 35° C.", "description": "An impure solid FDME sample, obtained from the esterification of FDCA with methanol, was determined to have 82.6 wt-% FDME (dimethyl ester), in addition to 10.4 wt-% of the monomethyl ester, FDMME, resulting from incomplete esterification. The sample also contained 0.35 wt-% of the FDCA starting compound and 0.58 wt-% of the aldehyde contaminant, FFME. In separate solubility studies with different solvents, various amounts of this sample were charged to a scintillation vial, and in each case 10 ml of solvent was added."}, "[6]": {"details": "Average of Samples #1 and #2, two measurements each"}, "[7]": {"details": "single measurements, about 6 wt-% in 1:1 (v/v) acetonitrile/isopropanol"}}, "data": [{"smiles": "COC(=O)c1ccc(C(=O)OC)o1", "note": "[FDME, 2,5-furandicarboxylic acid, dimethyl ester]", "values": [{"measurement": "Purity on storage (stability)", "setting": "[1]; crystals initially 99.98 wt-% pure, stored in ambient air in a bottle on a tabletop", "value": "maintained"}, {"measurement": "Appearance on storage (color stability, flow)", "setting": "[1]; stored in ambient air", "value": "very little development of off-white color"}, {"measurement": "L*", "setting": "[2]; [6]", "value": 99.43}, {"measurement": "a*", "setting": "[2]; [6]", "value": "−0.01"}, {"measurement": "b*", "setting": "[2]; [6]", "value": 0.39}, {"measurement": "L*", "setting": "[2]; [7]", "value": "> 99"}, {"measurement": "a*", "setting": "[2]; [7]", "value": "< 0.5"}, {"measurement": "b*", "setting": "[2]; [7]", "value": "< 0.5"}, {"measurement": "Hazen/APHA", "setting": "[3]", "value": 12}, {"measurement": "Room temperature solubility in methanol", "setting": "[4]", "value": "approximately 2 wt-%"}, {"measurement": "Solubility of crude compositions, summary in words", "setting": "[5]; in methylene chloride, acetonitrile, N,N′-dimethylformamide, 1,4-dioxane, 1,1,2,2-tetrachloroethane, ethyl acetate, tetrahydrofuran, pyridine, acetone, dimethyl sulfoxide", "value": "favorable solubility"}, {"measurement": "Solubility remarks", "setting": "[5]; solvent 1,1,2,2-tetrachloroethane", "value": "Very soluble"}, {"measurement": "FDME solubility limits", "setting": "[5]; solvent 1,1,2,2-tetrachloroethane, impure FDME sample (82.6 wt-% FDME)", "value": "23-27 wt-%"}, {"measurement": "FDME solubility limits", "setting": "[5]; solvent 1,3-Propanediol", "value": "<8", "unit": "wt-%"}, {"measurement": "Solubility remarks", "setting": "[5]; solvent 1,3-Propanediol", "value": "Insoluble"}, {"measurement": "FDME solubility limits", "setting": "[5]; solvent 1,4-Dioxane", "value": "23-28 wt-%"}, {"measurement": "Solubility remarks", "setting": "[5]; solvent 1,4-Dioxane", "value": "Very soluble"}, {"measurement": "FDME solubility limits", "setting": "[5]; solvent Acetone", "value": "12-20 wt-%"}, {"measurement": "Solubility remarks", "setting": "[5]; solvent Acetone", "value": "Soluble"}, {"measurement": "FDME solubility limits", "setting": "[5]; solvent Acetonitrile", "value": ">39", "unit": "wt-%"}, {"measurement": "Solubility remarks", "setting": "[5]; solvent Acetonitrile", "value": "Exceptionally soluble"}, {"measurement": "FDME solubility limits", "setting": "[5]; solvent Dimethyl sulfoxide", "value": "9-13 wt-%"}, {"measurement": "Solubility remarks", "setting": "[5]; solvent Dimethyl sulfoxide", "value": "Soluble"}, {"measurement": "FDME solubility limits", "setting": "[5]; solvent Ethanol", "value": "<10", "unit": "wt-%"}, {"measurement": "Solubility remarks", "setting": "[5]; solvent Ethanol", "value": "Insoluble"}, {"measurement": "FDME solubility limits", "setting": "[5]; solvent Ethyl Acetate", "value": "18-25 wt-%"}, {"measurement": "Solubility remarks", "setting": "[5]; solvent Ethyl Acetate", "value": "Very soluble"}, {"measurement": "FDME solubility limits", "setting": "[5]; solvent Ethylene Glycol", "value": "<8", "unit": "wt-%"}, {"measurement": "Solubility remarks", "setting": "[5]; solvent Ethylene Glycol", "value": "Insoluble"}, {"measurement": "FDME solubility limits", "setting": "[5]; solvent Methanol", "value": "<11", "unit": "wt-%"}, {"measurement": "Solubility remarks", "setting": "[5]; solvent Methanol", "value": "Insoluble"}, {"measurement": "FDME solubility limits", "setting": "[5]; solvent Methyl-t-butyl ether", "value": "<10", "unit": "wt-%"}, {"measurement": "Solubility remarks", "setting": "[5]; solvent Methyl-t-butyl ether", "value": "Insoluble"}, {"measurement": "FDME solubility limits", "setting": "[5]; solvent Methylene Chloride", "value": "27-31 wt-%"}, {"measurement": "Solubility remarks", "setting": "[5]; solvent Methylene Chloride", "value": "Very soluble"}, {"measurement": "FDME solubility limits", "setting": "[5]; solvent N,N′-dimethylformamide", "value": "30-35 wt-%"}, {"measurement": "Solubility remarks", "setting": "[5]; solvent N,N′-dimethylformamide", "value": "Very soluble"}, {"measurement": "FDME solubility limits", "setting": "[5]; solvent Pyridine", "value": "17-23 wt-%"}, {"measurement": "Solubility remarks", "setting": "[5]; solvent Pyridine", "value": "Very soluble"}, {"measurement": "FDME solubility limits", "setting": "[5]; solvent THF", "value": "17-23 wt-%"}, {"measurement": "Solubility remarks", "setting": "[5]; solvent THF", "value": "Very soluble"}, {"measurement": "FDME solubility limits", "setting": "[5]; solvent Toluene", "value": "<10", "unit": "wt-%"}, {"measurement": "Solubility remarks", "setting": "[5]; solvent Toluene", "value": "Insoluble"}]}]}
